For test [1], the system named is SKOV-3. Kind of test: MTT in vitro antiproliferative assay, SKOV-3. It is filed as cell-based. The following applies: Homo sapiens, SK-OV-3, SKOV-3, MTT; for IC50: 48 h, concentration causing 50% cell death, read-out: IC50; for GI50 / IC (TGI): 48 h drug exposure; for GI50: read-out: GI50; for IC (TGI): read-out: TGI. The source says: (§1) The in vitro antiproliferative activities of the novel triazolo[3,4-b]thiadiazole derivatives were estimated in ten well-established human cancer cell lines including three ovarian (SKOV-3, UWB 1.289, and UWB 1.289+BRCA1), five colorectal adenocarcinoma (DLD-1, HT-29, LS174T, LoVo, and SW403), and two prostate cancer cell lines (PC-3 and DU-145). All cancer cell lines were obtained from the American Type Culture Collection (ATCC) and cultivated in different culture media according to the instructions. The required growth mediums were supplemented with 10% fetal bovine serum and 1% streptomycin/penicillin. All cancer cell lines were cultured as monolayers and maintained at 37 °C, 5% CO2 in humidified air.
(§2) Stock solutions of all tested compounds were prepared by dissolving the required amount of substances in the DMSO solvent to reach the desired concentration of 15 mM.
(§3) To evaluate the in vitro antiproliferative activity of the triazolo[3,4-b]thiadiazole derivatives, 3-(4,5-dimethylthiazol-2-yl)-2,5-diphenyltetrazolium bromide (MTT) assay was assessed. According to the protocol, cells were firstly seeded into a 96-well plate at a density of 8 × 10^3 cells and grown for 24 h at 37 °C, 5% CO2 in humidified air. Subsequently, cells were treated with the tested compounds in a specific range of drug concentrations (1–100 μΜ). Following 48 h of drug exposure, the culture media were discarded and replaced with 100 μL of fresh medium. Afterwards, 50 μL of dissolved MTT in phosphate-buffered saline (PBS) solution (5 mg/mL) were added in each well and cells were incubated for 3 h at 37 °C, 5% CO2 in humidified air. Incubation time was followed by MTT discard and the addition of 100 μL of DMSO solvent so that the formazan crystals could be dissolved. The absorbance of the converted dye was immediately measured at a wavelength of 540 nm on an ELISA reader (VersaMax Microplate Reader, Orleans, CA, USA).
(§4) The in vitro anticancer effect of a tested compound on cell viability was determined by three dose–response parameters termed GI50, TGI, and IC50. More specifically, the GI50 value indicates the required concentration of the compound that impels 50% cell growth inhibition, the TGI value corresponds to the concentration that induces 100% cell growth inhibition, and the IC50 value is the concentration that causes 50% cell death. The two parameters GI50 and TGI represent the cytostatic activity, whereas IC50 reflects the cytotoxic effect of a drug. To estimate the three parameters, nine absorbance measurements were required including control 24 h (Ct24), control 72 h (Ct72), and the mean of cell survival in all seven drug concentrations (Tt72). The percentage growth inhibition was calculated according to National Cancer Institute’s (NCI) protocol: [(Tt72x) − (Ct24)/(Ct72) − (Ct24)] × 100 for concentrations for which Tt72x > Ct24 and [(Tt72x) − (Ct24)/Ct24] × 100 for concentrations for which Tt72x < Ct24. GI50 was calculated from [(Tt72x) − (Ct24)/(Ct72) − (Ct24)] × 100 = 50, TGI was calculated from [(Tt72x) − (Ct24)/(Ct72) − (Ct24)] × 100 = 0, and IC50 was calculated from [(Tt72x) − (Ct24)/Ct24] × 100 = 50. All the experiments were carried out in triplicate.

For test [2], the system named is UWB 1.289. Kind of test: MTT in vitro antiproliferative assay, UWB 1.289. In kind it is cell-based, human. The following applies: UWB 1.289, MTT; for IC50 / GI50: Homo sapiens, UWB1289; for IC50: 48 h, 50% cell death; for GI50 / TGI: 48 h drug exposure.
Excerpt: as §1, §2, §3, §4

The subject of test [3] is HT-29. Briefly: MTT in vitro antiproliferative assay, HT-29. It is filed as cell-based, human. Conditions: HT-29, MTT; for IC50 / GI50: Homo sapiens; for IC50: 48 h, 50% cell death, read-out: IC50; for GI50: read-out: GI50.
Excerpt: as §1, §2, §3, §4

Test [4] relates to LS174T. Kind of test: MTT in vitro antiproliferative assay, LS174T. Conditions: for TGI / GI50: 48 h drug exposure; for IC50 / GI50: Homo sapiens; for IC50: 48 h, 50% cell death. It is filed as cell-based, human.
Excerpt: as §1, §2, §3, §4

Test [5] concerns SW403. Kind of test: MTT in vitro antiproliferative assay, SW403. It is filed as cell-based, human. Conditions: for TGI: 48 h drug exposure; for IC50 / GI50: Homo sapiens; for IC50: SW-403, 48 h, 50% cell death; for GI50: SW-403, 48 h drug exposure.
Excerpt: as §1, §2, §3, §4

In test [6] the test system is LoVo. Kind of test: MTT in vitro antiproliferative assay, LoVo. It is filed as cell-based, human. The following applies: for TGI / GI50: 48 h drug exposure; for IC50 / GI50: Homo sapiens; for IC50: 48 h, 50% cell death.
Excerpt: as §1, §2, §3, §4

Test [7] relates to PC-3. Kind of test: MTT in vitro antiproliferative assay, PC-3. In kind it is cell-based. The following applies: Homo sapiens, PC-3, MTT; for IC50: 48 h, 50% cell death, read-out: IC50; for GI50 / IC (TGI): 48 h drug exposure; for GI50: read-out: GI50; for IC (TGI): read-out: TGI.
Excerpt: as §1, §2, §3, §4

A word on the IC50: it is the midpoint of a concentration-inhibition curve. As a reminder, the GI50 is the concentration that inhibits growth by half. For the compound `COc1cc(Cc2nnc3sc(C=Cc4ccc(F)cc4)nn23)c(S(=O)(=O)N(C)C)cc1OC` [KA25], the 50% inhibitory concentration (IC50) in test [1] is 85 ± 2.1 µM; in test [2], 62 ± 1.2 µM; in test [3] it was over 100 µM; in test [4], over 100 µM; in test [5] it was over 100 µM; in test [6], over 100 µM. For the same compound, the 50% inhibitory concentration (IC50) in test [7] is over 100 µM. Moreover, the GI50 in test [1] stood at 15 ± 0.5 µM; in test [2] it was 2 ± 0.5 µM; in test [3] (48 h drug exposure), 1 ± 0.3 µM; in test [4] it was 9.3 ± 2 µM; in test [5], 4.8 ± 0.8 µM; in test [6] it was 8 ± 0.76 µM. In addition, the 50% growth inhibitory concentration (GI50) in test [7] came to 14 ± 1 µM. The IC (TGI) is 50 ± 1.5 µM in test [1] and 22 ± 0.8 µM in test [7]. Moreover, the TGI in test [2] is given as 5 ± 0.7 μΜ; in test [4], 100 ± 0.1 μΜ; in test [5] it was over 100 μΜ; in test [6], 13.8 ± 0.52 μΜ.

Take `COc1cc(Cc2nnc3sc(-c4cc([N+](=O)[O-])ccc4[N+](=O)[O-])nn23)c(S(=O)(=O)N(C)C)cc1OC` [KA39]: the half-inhibitory concentration (IC50) in test [1] is 25 ± 1.4 µM; in test [2], 22 ± 1.2 µM; in test [3], 19.5 ± 0.9 µM; in test [4], 21.5 ± 1.5 µM; in test [5] it was 10 ± 0.76 µM; in test [6] it was 10.5 ± 0.15 µM. Besides, the IC50 in test [7] turned out to be 12 ± 0.1 µM. The GI50 in test [1] came out at 7 ± 0.2 µM; in test [2] it was 6 ± 0.2 µM; in test [3] (48 h drug exposure), 11.5 ± 0.8 µM; in test [4], 12 ± 1.5 µM; in test [5], 5.2 ± 0.2 µM; in test [6], 2.2 ± 0.2 µM. The GI50 in test [7] is 5 ± 0.15 µM. The IC (TGI) in test [1] is 12 ± 0.8 µM; in test [7], 8 ± 0.1 µM. In addition, the TGI was determined as 10 ± 0.8 μΜ in test [2]; 15.9 ± 0.55 μΜ in test [3] (48 h drug exposure); 17 ± 1.3 μΜ in test [4]; 7.9 ± 0.7 μΜ in test [5]; 5.5 ± 0.1 μΜ in test [6].

Regarding `COc1cc(Cc2nnc3sc(C=Cc4ccc(Cl)cc4)nn23)c(S(=O)(=O)N(C)C)cc1OC` [KA26], the IC50 in test [1] is over 100 µM; in test [2] it was 70 ± 1.4 µM; in test [3], over 100 µM; in test [4] it was over 100 µM; in test [5] it was over 100 µM; in test [6], over 100 µM. Also, the half-inhibitory concentration (IC50) in test [7] is over 100 µM. The concentration for 50% growth inhibition (GI50) amounted to 20 ± 0.5 µM in test [1]; 29 ± 0.7 µM in test [2]; 2 ± 0.76 µM in test [3] (48 h drug exposure); 8 ± 1.5 µM in test [4]; 11 ± 0.8 µM in test [5]; 15 ± 0.8 µM in test [6]. Also, in test [7], the 50% growth inhibitory concentration (GI50) was found to be 42.5 ± 1.5 µM. Further, the IC (TGI) in test [1] and in test [7] was over 100 µM in each case. For the same compound, the TGI in test [2] was 53 ± 1 μΜ; in test [4] it was over 100 μΜ; in test [5], over 100 μΜ; in test [6] it was over 100 μΜ.

The record behind these values is article PMC8066331, “Anticancer Activity of Triazolo-Thiadiazole Derivatives and Inhibition of AKT1 and AKT2 Activation” (Pharmaceutics, 2021).
